Structures can show the parent of a compound that is named as a salt. Where two headings read alike, the source gives them in different places.

This is an account of results in patent US5356887A, “Pharmaceutical compositions containing insoluble calcium salts of amino-hydroxybutylidene bisphoshonic acids” (Merck & Co., Inc., priority 1993, dated 1994).

For series [1], the system named is immobilized femur. The following applies: days -2 and -1, 10 days after surgery, n = 5. Here is the method: Immobilization was produced by unilateral hind limb sciatic neurectomy. Ten days after surgery the rats were sacrificed, hind limbs removed, and the femora ashed at 700° C. for 24 hours. Ash weight was determined and the difference between the ash weight of the intact limb and immobilized limb calculated and expressed as the mg difference. Per cent difference was calculated as the % difference in ash weight between the intact and immobilized limb.
(§1) mg Diff = difference in ash weight between the intact femur and the
(§2) se = standard error of the mean
(§3) % Bone Loss = ash weight difference between the intact femur and the
(§4) immobilized femur divided by the ash weight of the intact femur

In series [2] the test system is immobilized femur. The following applies: days -4 and -3, 10 days after surgery, n = 5. As to the method:
On day 0 all rats underwent surgery whereby the sciatic nerve of the right hind limb was severed. Ten days following immobilization surgery, the rats were sacrificed and hind limbs removed. The femora were defleshed, maximum femoral length of both femora measured and then placed in a muffle furnace at 700° C. for 24 hours.
as §1, §2, §3, §4

The conditions of series [3]: in vivo.
Another series has as its system rat paw. In words: Local Irritation Study/Rat Paw Licking Response Test. The following applies: suspension vs solution of the (ABP)Na salt.
Setting [4] is: 0.0001 mg P/kg s.c., monosodium salt.
[5] abbreviates: 0.001 mg P/kg s.c., monosodium salt.
Setting [6] is: 0.01 mg P/kg s.c., monosodium salt.
Setting [7] is: 0.1 mg P/kg s.c., monosodium salt.
Setting [8] is: 2 × 0.1 mg P/kg s.c., monosodium salt.
Where [9] appears, read: 0.0001 mg P/kg s.c., monocalcium salt.
Where [10] appears, read: 0.001 mg P/kg s.c., monocalcium salt.
Setting [11] is: 0.01 mg P/kg s.c., monocalcium salt.
[12] abbreviates: 0.1 mg P/kg s.c., monocalcium salt.
Where [13] appears, read: 2 × 0.1 mg P/kg s.c., monocalcium salt.
Where [14] appears, read: 2 × 1.0 mg P/kg s.c., monocalcium salt.

Take `NCCCC(O)(P(=O)(O)O)P(=O)(O)O` [(ABP)Na, (4-amino-1-hydroxybutylidene)-1,1-bisphosphonic acid monosodium salt, reference compound]: the “% Bone Loss” value with immobilized femur [1] (setting [4]) is given as 9.93%; in the series with immobilized femur [1] (setting [5]), 5.95%; in the series on immobilized femur [1] (setting [6]) it was 4.90%; with immobilized femur [1] (setting [7]), 4.15%; with immobilized femur [2] (setting [8]), 4.68%. Besides, the “mg Diff (difference in ash weight between the intact femur and the immobilized femur)” value in the series on immobilized femur [1] (setting [4]) came out at 31.14 mg; in the series with immobilized femur [1] (setting [5]), 21.32 mg; with immobilized femur [1] (setting [6]), 18.72 mg; in the series on immobilized femur [1] (setting [7]), 14.10 mg; with immobilized femur [2] (setting [8]) it was 14.62 mg. Also, the “Level of the drug in the bloodstream” value in series [3] (iv) is given as “high level”.
With `NCCCC(O)(P(=O)(O)O)P(=O)(O)O` [(ABP)2 Ca, di[(4-amino-1-hydroxybutylidene)-1,1-bisphosphonic acid] monocalcium salt], the “% Bone Loss” value in the series on immobilized femur [1] (setting [9]) is on record as 8.93%; in the series on immobilized femur [1] (setting [10]) it was 6.58%; with immobilized femur [1] (setting [11]), 3.64%; with immobilized femur [1] (setting [12]), 4.14%; with immobilized femur [2] (setting [13]), 1.93%; with immobilized femur [2] (setting [14]), 2.09%. The “mg Diff (difference in ash weight between the intact femur and the immobilized femur)” value with immobilized femur [1] (setting [9]) is given as 29.64 mg; in the series with immobilized femur [1] (setting [10]), 22.00 mg; in the series with immobilized femur [1] (setting [11]) it was 12.62 mg; in the series on immobilized femur [1] (setting [12]), 11.32 mg; with immobilized femur [2] (setting [13]), 6.50 mg; in the series on immobilized femur [2] (setting [14]), 7.38 mg. Besides, the “Paw licking responses and tolerability, in words” value in the series with rat paw is “induced a lower number of responses and were better tolerated than the solution of the (ABP)Na salt”.
As to `NCCCC(O)(P(=O)(O)O)P(=O)(O)O` [(ABP)Ca, [(4-amino-1-hydroxybutylidene)-1,1-bisphosphonic acid] monocalcium salt], the “% Bone Loss” value is given as 9.34% in the series with immobilized femur [1] (setting [9]), 7.69% in the series on immobilized femur [1] (setting [10]), 5.01% in the series on immobilized femur [1] (setting [11]) and 4.12% in the series with immobilized femur [1] (setting [12]). Further, the “mg Diff (difference in ash weight between the intact femur and the immobilized femur)” value is on record as 28.70 mg with immobilized femur [1] (setting [9]), 25.98 mg in the series with immobilized femur [1] (setting [10]), 16.72 mg with immobilized femur [1] (setting [11]) and 13.24 mg with immobilized femur [1] (setting [12]). In addition, the “Systemic release of ABP” value in series [3] is on record as “slow systemic release”. Besides, in series [3] (sc), the “Level of the drug in the bloodstream” value was “never very high”.
Consider `NCCCC(O)(P(=O)(O)O)P(=O)(O)O` [(ABP)3 Ca4, tri[(4-amino-1-hydroxybutylidene)-1,1-bisphosphonic acid] tetracalcium salt], for which the “Paw licking responses and tolerability, in words” value in the series on rat paw was “induced a lower number of responses and were better tolerated than the solution of the (ABP)Na salt”. In addition, in the series on immobilized femur [2] (2 × 0.1 mg P/kg s.c.), the “% Bone Loss” value is 2.48%; the “mg Diff (difference in ash weight between the intact femur and the immobilized femur)” value came out at 7.68 mg. In addition, in the series on immobilized femur [2] (2 × 1.0 mg P/kg s.c.), the “% Bone Loss” value was found to be 1.22%; the “mg Diff (difference in ash weight between the intact femur and the immobilized femur)” value is listed as 3.94 mg.
